Laboratory results taken from patent publication US12673041B2, “4-aminobut-2-enamide derivatives and salt thereof” (TAIHO PHARMACEUTICAL CO., LTD., priority 2019, dated 2026).

What was measured:
[1] = biological target: Gppcp-bound recombinant K-Ras4B G12C mutant protein (amino acids 1-169, C51S/C80L/C118S) (Homo sapiens, UniProt P01116, C118S/C51S/C80L/G12C); assay: KRASG12C binding assay (LC-MS compound binding rate); conditions: test compound final concentration 0.5 μM, 25° C., 1 hour
Outline: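 Gppcp-bound K-Ras4B G12C (aa 1-169, C51S/C80L/C118S) at 50 nM in 1×TBS, 0.1 mM TCEP, 0.25 mM MgCl2, 50 μM Gppcp was incubated 1 hour at 25° C with compound at 0.5 μM final. Intact-protein LC-MS gave binding rate as single-adduct signal over total KRAS signal, graded A (≥80%) to E (<20%).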

[2] = biological target: T1, GMPPNP-bound KRAS G12C protein and cRAF RAS-binding domain (cRAF-RBD) (Homo sapiens, UniProt P01116, G12C); assay: Inhibitory activity on interaction between KRAS G12C and cRAF (Alpha technology); assay type: biochemical; conditions: GMPPNP-bound KRAS G12C incubated with compound at 25° C. for 1 hour, then cRAF-RBD, Alpha signal; read-out: IC50
T1 construct: made in house; host or cells: E. coli
Outline: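 GMPPNP-loaded His-KRAS G12C (aa 1-169) preincubated 1 h at 25 °C with compound (pH 7.5 Tris, 1 mM MgCl2, TCEP, Tween 20), then cRAF-RBD (aa 50-132) and Alpha reagents added for 1.5 h at RT. Inhibition scaled between DMSO (0%) and GDP-bound KRAS (100%); IC50 by curve fitting.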

Row | IC50 [2] | SMILES | binding rate [1]
1 | 180 nM | CCc1nc2cc(-c3cccc(NC(=O)c4ccc(NC(=O)/C=C/CN[C@H]5CC[C@H](OC)CC5)c(C#N)c4)c3)c(C(F)(F)F)cc2n1C [Example 1, 3-cyano-N-(3-(2-ethyl-1-methyl-6-(trifluoromethyl)-1H-benzo[d]imidazol-5-yl)phenyl)-4-((E)-4-(((1r, 4r)-4-methoxycyclohexyl)amino)but-2-enamido)benzamide] | A (A binding rate of 80% or more is rated “A”)
2 | 23 nM | CO[C@H]1CC[C@H](NC/C=C/C(=O)Nc2ccc(C(=O)c3ccc4c(-c5cc6ncn(C)c6cc5C)cccn34)cc2C#N)CC1 [Example 4, (E)-N-(2-cyano-4-(8-(1,6-dimethyl-1H-benzo[d]imidazol-5-yl)indolizine-3-carbonyl)phenyl)-4-(((1r,4r)-4-methoxycyclohexyl)amino)but-2-enamide] | A (A binding rate of 80% or more is rated “A”)

Row | SMILES | IC50 [2] | binding rate [1]
3 | C=CC(=O)N1CCN(c2ncnc3c(F)c(-c4c(O)cccc4F)c(Cl)cc23)CC1 [ARS-1620, reference compound] | > 67000 nM | E (a binding rate of less than 20% is rated “E”)
